From ChEMBL document CHEMBL1133183, “Quantized surface complementarity diversity (QSCD): a model based on small molecule-target complementarity” (J Med Chem, 2000)
Blank lines part the entries; values can stand above or below the compound they belong to.

Columns and labels:
[1] = Inhibitory activity against DNA topoisomerase I
[2] = target: T1, Type-1 angiotensin II receptor (Oryctolagus cuniculus, UniProt P34976); test: Binding affinity to Angiotensin II receptor, type 1
T1 sequence (P34976 whole entry): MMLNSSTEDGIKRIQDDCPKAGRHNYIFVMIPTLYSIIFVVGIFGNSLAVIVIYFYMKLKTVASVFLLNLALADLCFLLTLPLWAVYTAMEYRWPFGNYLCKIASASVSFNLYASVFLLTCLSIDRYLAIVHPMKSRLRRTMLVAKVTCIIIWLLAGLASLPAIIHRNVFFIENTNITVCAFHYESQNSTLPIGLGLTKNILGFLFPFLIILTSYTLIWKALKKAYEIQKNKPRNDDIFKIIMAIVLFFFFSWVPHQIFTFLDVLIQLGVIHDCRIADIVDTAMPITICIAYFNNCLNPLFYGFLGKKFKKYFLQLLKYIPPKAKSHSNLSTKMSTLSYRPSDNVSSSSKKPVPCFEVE

[3] = target: Leukotriene B4 receptor 1 (Homo sapiens, UniProt Q15722); test: Binding affinity to leukotriene B4 receptor
[4] = target: T2, Type-2 angiotensin II receptor (Rattus norvegicus, UniProt P35351); test: Binding affinity to Angiotensin II receptor, type 2
T2 sequence (P35351 whole entry): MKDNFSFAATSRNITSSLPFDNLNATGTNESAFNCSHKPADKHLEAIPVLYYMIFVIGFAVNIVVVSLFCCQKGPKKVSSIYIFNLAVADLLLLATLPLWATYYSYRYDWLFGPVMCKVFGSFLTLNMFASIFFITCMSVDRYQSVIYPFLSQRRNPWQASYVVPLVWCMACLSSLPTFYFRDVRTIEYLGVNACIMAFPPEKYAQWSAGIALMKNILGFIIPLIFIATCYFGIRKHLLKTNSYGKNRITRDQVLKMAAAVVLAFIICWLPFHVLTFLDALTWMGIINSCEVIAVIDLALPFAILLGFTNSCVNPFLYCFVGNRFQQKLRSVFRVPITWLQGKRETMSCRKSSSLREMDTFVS

[5] = target: T2, Type-2 angiotensin II receptor; test: Inhibitory activity against Angiotensin II receptor, type 2 binding
Prolyl endopeptidase = Prolyl endopeptidase (Sus scrofa, UniProt P23687); test: Inhibition of Prolyl endopeptidase activity; type: functional
Adenosine receptor A2a = Adenosine receptor A2a (Rattus norvegicus, UniProt P30543); test: Binding affinity to Adenosine A2A receptor
Endothelin-1 receptor = target: T3, Endothelin-1 receptor (Homo sapiens, UniProt P25101); test: Binding affinity to Endothelin A receptor
T3 sequence (P25101 whole entry): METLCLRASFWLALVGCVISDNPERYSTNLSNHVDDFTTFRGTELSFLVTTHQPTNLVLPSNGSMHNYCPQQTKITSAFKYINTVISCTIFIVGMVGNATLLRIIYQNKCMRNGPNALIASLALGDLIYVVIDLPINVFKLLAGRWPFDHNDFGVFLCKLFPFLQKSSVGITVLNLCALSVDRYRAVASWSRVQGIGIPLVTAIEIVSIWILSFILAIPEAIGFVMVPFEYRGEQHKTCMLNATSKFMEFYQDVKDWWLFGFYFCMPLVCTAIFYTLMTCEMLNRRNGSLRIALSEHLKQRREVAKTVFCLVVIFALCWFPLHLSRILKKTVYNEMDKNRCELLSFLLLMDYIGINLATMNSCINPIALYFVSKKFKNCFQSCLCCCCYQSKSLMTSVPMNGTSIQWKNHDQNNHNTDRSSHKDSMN

Chain of Leukotriene B4 receptor 1 (Q15722 whole entry): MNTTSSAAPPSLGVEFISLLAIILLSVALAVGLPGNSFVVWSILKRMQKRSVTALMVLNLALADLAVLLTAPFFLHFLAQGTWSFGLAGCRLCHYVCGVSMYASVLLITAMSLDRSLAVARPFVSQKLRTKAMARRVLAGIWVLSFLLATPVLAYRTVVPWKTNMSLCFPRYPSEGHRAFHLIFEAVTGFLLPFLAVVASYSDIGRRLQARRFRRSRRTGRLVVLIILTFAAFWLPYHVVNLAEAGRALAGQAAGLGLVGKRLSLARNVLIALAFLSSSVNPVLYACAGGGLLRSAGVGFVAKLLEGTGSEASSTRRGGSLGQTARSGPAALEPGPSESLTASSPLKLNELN
Chain of Adenosine receptor A2a (P30543 whole entry): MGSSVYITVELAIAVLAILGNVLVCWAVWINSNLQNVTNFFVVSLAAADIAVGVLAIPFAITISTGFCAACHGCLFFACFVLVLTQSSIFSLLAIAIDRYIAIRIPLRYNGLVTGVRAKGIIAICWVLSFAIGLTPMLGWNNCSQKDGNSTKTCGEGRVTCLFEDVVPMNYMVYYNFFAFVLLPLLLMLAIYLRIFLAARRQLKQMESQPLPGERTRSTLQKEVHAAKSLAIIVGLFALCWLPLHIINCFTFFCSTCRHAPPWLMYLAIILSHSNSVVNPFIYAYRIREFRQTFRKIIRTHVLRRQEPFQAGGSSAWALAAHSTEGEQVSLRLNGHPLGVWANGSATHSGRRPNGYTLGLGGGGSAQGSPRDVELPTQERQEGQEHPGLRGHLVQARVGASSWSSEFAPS
Chain of Prolyl endopeptidase (P23687 whole entry): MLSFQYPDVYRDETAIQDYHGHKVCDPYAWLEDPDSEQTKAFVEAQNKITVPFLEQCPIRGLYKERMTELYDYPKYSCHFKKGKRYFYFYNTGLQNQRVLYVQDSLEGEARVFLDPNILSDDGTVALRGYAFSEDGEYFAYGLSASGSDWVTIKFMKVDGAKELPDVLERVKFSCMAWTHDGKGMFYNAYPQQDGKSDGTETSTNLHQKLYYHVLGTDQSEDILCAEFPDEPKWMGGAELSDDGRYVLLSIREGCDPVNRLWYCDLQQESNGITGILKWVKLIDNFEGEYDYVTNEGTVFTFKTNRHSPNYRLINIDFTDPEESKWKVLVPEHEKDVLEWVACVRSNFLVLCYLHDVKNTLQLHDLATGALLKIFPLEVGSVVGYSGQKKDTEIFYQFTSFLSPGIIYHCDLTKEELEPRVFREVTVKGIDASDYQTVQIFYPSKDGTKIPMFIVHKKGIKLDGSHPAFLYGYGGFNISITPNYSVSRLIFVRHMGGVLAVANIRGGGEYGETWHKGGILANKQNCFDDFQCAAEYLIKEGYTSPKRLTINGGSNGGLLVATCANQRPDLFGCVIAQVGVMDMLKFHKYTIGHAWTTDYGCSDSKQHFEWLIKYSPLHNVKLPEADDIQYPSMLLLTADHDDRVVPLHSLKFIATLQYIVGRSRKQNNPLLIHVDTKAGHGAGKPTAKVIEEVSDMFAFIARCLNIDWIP

SMILES: CC[C@@]1(O)C(=O)OCc2c1cc1n(c2=O)Cc2c-1nc1cnc(Br)cc1c2C
- IC50 [1]: 28 nM

SMILES: CC[C@@]1(O)C(=O)OCc2c1cc1n(c2=O)Cc2c-1nc1cnc(C#N)cc1c2C
- IC50 [1]: 143 nM

- Ki [2]: 1.2 nM
SMILES: CCCCc1nn(-c2ccccc2C(F)(F)F)c(=O)n1Cc1ccc(-c2ccccc2-c2nnn[nH]2)cc1

- Ki [3]: 320 nM
SMILES: CCCc1c(OCCCOc2ccc3c(c2CCC)O[C@@H](C(=O)O)CC3)ccc(C(C)=O)c1CO

- Ki [4]: 17 nM
- IC50 [5]: 0.45 nM
SMILES: CCCCc1nn(-c2ccccc2C(F)(F)F)c(=O)n1Cc1ccc(-c2ccccc2S(=O)(=O)NC(=O)OC(C)(C)C)cc1

- Ki [4]: 173 nM
- IC50 [5]: 31 nM
SMILES: CCCCc1nn(-c2cccc([N+](=O)[O-])c2)c(=O)n1Cc1ccc(-c2ccccc2S(=O)(=O)NC(=O)c2ccccc2Cl)cc1

- IC50 (Prolyl endopeptidase): 10.3 nM
SMILES: CCOC(=O)C(=O)[C@@H]1CCCN1C(=O)[C@@H]1CCCN1C(=O)CCCc1ccccc1

- Ki [2]: 1.4 nM
SMILES: CCCCc1nn(-c2ccccc2C(C)C)c(=O)n1Cc1ccc(-c2ccccc2-c2nn[nH]n2)cc1

- Ki [3]: 3.2 nM
SMILES: CCCc1c(OCCCOc2ccc(-c3cscn3)c(COC)c2CC2CC2)ccc2c1O[C@@H](C(=O)O)CC2

- Ki (Adenosine receptor A2a): 41.3 nM
SMILES: CCNC(=O)[C@H]1C[C@@H](n2cnc3c(N)nc(C#Cc4nccs4)nc32)[C@H](OC)[C@@H]1OC

- Ki (Endothelin-1 receptor): 170 nM
SMILES: COc1ccc(CC2C(c3ccc(Cl)c(Cl)c3)C(=O)O[C@@]2(O)c2ccc(OC)cc2)cc1 (stereo partly drawn)
